Assay results as given in ChEMBL document CHEMBL5291721, “A preclinical secondary pharmacology resource illuminates target-adverse drug reaction associations of marketed drugs” (Nat Commun, 2023).

How the values were obtained:
[1] = target: T1, Alpha-2A adrenergic receptor (Homo sapiens, UniProt P08913); format: functional, cell-based
T1 sequence (P08913 whole entry): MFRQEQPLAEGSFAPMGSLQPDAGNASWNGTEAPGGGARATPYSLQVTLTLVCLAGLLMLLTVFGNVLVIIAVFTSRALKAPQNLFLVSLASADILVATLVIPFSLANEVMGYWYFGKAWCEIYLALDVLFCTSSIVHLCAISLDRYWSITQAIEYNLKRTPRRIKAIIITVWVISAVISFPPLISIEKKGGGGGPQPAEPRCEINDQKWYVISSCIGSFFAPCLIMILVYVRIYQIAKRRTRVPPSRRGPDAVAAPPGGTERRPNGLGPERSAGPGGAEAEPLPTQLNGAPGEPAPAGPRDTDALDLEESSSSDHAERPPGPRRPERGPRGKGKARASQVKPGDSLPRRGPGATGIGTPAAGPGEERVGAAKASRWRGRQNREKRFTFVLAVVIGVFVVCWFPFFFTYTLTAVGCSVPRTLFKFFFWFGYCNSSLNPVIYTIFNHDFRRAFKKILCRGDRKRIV

[2] = target: Neuronal acetylcholine receptor subunit alpha-4 (Homo sapiens, UniProt P43681)
[3] = target: Voltage-gated inwardly rectifying potassium channel KCNH2 (Homo sapiens, UniProt Q12809); format: functional; settings: read-out: AC50
[4] = target: T2, 5-hydroxytryptamine receptor 2C (Homo sapiens, UniProt P28335)
T2 sequence (P28335 whole entry): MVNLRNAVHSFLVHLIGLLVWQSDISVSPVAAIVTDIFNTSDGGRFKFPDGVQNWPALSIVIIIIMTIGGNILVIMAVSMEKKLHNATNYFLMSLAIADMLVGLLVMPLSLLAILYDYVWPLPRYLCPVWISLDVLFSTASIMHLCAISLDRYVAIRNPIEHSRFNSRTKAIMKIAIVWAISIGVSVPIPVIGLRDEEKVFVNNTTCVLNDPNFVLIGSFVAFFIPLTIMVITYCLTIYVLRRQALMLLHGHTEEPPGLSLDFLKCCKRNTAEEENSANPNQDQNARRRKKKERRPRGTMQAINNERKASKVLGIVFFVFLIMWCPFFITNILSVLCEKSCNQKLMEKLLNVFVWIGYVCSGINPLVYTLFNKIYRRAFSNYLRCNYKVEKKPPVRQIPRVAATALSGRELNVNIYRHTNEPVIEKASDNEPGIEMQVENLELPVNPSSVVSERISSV

Adenosine receptor A2a = Adenosine receptor A2a (Homo sapiens, UniProt P29274)
[5] = target: T3, 5-hydroxytryptamine receptor 1A (Homo sapiens, UniProt P08908); format: functional, cell-based
T3 sequence (P08908 whole entry): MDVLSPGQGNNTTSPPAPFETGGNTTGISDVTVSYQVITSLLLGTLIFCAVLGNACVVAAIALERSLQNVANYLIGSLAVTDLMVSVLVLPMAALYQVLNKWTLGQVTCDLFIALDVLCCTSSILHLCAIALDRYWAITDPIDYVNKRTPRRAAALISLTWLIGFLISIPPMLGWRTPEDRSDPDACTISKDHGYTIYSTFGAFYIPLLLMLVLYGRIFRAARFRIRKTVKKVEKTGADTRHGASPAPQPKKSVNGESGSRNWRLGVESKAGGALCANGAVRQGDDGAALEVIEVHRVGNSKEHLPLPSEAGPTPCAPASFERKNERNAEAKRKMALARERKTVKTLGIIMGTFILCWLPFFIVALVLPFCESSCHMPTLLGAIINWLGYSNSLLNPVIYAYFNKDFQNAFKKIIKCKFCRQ

Adenosine receptor A1 = target: T4, Adenosine receptor A1 (Homo sapiens, UniProt P30542)
T4 sequence (P30542 whole entry): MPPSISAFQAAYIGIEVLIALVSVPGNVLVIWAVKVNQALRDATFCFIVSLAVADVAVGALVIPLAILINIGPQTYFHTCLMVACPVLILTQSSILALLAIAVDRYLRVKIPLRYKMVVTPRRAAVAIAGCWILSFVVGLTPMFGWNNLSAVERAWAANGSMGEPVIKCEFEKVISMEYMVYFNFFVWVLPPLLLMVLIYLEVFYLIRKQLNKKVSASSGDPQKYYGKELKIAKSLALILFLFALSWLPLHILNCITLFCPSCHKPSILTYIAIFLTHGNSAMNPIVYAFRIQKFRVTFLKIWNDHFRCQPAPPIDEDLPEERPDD

[6] = target: 5-hydroxytryptamine receptor 2B (Homo sapiens, UniProt P41595); format: functional, cell-based
[7] = target: Sodium-dependent noradrenaline transporter (Homo sapiens, UniProt P23975)
[8] = target: T5, Alpha-2C adrenergic receptor (Homo sapiens, UniProt P18825); format: functional
T5 sequence (P18825 whole entry): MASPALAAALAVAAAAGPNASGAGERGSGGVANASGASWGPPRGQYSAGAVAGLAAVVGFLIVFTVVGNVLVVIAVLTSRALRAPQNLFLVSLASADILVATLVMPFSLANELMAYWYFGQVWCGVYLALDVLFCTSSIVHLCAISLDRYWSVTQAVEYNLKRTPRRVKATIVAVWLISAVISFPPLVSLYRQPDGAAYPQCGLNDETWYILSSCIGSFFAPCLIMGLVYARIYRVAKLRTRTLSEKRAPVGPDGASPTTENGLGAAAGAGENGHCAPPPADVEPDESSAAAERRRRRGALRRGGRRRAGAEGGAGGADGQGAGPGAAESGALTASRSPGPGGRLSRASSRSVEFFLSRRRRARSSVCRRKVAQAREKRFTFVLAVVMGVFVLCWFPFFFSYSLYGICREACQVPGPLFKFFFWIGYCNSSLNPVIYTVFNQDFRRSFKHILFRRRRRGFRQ
Further: assay procedure not described here.

Sequence of Voltage-gated inwardly rectifying potassium channel KCNH2 (Q12809 whole entry): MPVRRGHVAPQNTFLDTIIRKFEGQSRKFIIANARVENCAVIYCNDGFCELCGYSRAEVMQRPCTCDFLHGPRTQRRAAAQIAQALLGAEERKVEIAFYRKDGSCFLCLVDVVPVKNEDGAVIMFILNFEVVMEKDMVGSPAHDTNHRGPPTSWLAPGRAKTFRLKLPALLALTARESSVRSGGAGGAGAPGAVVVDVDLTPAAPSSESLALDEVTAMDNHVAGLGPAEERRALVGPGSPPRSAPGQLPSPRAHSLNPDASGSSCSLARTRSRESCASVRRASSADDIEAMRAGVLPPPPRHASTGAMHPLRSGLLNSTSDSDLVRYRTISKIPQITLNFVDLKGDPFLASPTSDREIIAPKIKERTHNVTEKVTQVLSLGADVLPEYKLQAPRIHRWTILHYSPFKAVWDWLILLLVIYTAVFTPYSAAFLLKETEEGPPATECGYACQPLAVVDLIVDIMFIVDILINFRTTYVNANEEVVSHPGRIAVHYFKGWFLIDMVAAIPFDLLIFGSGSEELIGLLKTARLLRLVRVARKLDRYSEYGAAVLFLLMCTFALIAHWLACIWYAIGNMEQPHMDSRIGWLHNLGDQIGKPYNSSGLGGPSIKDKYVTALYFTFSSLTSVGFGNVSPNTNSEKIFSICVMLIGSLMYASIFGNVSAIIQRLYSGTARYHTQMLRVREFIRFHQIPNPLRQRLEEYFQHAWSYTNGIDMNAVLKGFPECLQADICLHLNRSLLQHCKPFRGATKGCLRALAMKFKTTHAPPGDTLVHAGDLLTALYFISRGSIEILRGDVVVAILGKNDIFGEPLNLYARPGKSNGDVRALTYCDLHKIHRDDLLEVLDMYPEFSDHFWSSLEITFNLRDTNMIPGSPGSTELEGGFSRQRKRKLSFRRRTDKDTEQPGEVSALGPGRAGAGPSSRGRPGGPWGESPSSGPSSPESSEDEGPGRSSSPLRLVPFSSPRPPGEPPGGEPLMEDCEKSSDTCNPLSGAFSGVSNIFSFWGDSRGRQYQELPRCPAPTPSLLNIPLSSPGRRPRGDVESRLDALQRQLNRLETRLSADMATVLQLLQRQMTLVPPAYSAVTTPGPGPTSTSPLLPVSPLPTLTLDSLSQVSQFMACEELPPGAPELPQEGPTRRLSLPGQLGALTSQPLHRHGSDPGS
Sequence of Neuronal acetylcholine receptor subunit alpha-4 (P43681 whole entry): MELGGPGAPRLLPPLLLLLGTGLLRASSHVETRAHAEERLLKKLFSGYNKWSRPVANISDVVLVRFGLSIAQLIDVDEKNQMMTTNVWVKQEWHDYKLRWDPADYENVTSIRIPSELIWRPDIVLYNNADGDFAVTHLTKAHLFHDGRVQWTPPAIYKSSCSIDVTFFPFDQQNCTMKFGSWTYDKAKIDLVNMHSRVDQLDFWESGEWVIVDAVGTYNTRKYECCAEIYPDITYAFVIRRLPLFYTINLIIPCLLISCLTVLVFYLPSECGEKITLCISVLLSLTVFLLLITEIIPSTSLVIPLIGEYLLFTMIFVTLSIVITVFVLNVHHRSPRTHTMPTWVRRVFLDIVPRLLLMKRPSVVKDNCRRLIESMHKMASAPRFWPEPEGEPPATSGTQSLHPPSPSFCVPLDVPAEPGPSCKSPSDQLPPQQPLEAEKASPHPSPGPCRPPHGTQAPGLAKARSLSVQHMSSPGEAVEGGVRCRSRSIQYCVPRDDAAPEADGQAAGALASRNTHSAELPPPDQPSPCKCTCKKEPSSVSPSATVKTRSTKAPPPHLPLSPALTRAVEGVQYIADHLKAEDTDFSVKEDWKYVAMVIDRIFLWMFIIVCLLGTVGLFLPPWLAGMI
Sequence of 5-hydroxytryptamine receptor 2B (P41595 whole entry): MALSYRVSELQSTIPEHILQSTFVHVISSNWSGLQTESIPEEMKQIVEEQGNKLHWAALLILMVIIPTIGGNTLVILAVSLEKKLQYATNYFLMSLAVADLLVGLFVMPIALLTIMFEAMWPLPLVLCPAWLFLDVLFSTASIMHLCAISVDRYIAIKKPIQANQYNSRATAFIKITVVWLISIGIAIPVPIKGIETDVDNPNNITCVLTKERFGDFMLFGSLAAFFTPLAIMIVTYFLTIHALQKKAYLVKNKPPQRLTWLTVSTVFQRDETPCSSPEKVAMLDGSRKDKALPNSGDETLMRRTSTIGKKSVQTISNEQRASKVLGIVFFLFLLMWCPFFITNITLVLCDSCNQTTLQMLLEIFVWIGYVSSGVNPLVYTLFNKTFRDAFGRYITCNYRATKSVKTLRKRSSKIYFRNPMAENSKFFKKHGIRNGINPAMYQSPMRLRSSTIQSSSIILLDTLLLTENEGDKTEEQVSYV
Sequence of Adenosine receptor A2a (P29274 whole entry): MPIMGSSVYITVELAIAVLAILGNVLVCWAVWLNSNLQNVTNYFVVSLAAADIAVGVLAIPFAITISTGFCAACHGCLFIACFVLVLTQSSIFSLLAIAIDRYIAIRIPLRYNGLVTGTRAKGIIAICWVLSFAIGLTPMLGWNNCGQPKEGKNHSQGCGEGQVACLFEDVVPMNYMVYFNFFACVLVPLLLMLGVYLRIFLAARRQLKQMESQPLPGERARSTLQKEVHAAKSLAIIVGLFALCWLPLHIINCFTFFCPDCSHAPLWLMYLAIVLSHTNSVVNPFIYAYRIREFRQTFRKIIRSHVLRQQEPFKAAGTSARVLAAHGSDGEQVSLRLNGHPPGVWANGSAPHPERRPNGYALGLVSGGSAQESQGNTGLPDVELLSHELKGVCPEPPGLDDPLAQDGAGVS
Sequence of Sodium-dependent noradrenaline transporter (P23975 whole entry): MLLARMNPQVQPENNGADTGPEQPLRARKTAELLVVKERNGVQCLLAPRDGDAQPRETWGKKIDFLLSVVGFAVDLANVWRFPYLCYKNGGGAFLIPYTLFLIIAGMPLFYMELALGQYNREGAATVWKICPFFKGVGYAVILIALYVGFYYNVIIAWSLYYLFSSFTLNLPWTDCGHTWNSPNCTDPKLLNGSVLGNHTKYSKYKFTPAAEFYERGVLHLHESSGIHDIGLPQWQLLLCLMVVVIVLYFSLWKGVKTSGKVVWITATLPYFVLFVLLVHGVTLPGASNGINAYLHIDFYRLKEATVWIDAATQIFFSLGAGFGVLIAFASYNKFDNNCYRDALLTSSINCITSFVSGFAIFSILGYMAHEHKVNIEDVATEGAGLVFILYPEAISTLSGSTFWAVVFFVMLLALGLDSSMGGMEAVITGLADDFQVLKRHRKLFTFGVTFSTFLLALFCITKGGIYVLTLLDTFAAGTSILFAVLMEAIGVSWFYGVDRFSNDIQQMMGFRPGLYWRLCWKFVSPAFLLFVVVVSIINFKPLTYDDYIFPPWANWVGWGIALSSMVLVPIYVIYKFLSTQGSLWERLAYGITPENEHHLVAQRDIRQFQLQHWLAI

| SMILES | AC50 [1] [µM] | AC50 [2] [µM] | AC50 [3] [µM] | AC50 [4] [µM] | AC50 (Adenosine receptor A2a) [µM] | AC50 [5] [µM] | AC50 (Adenosine receptor A1) [µM] | AC50 [6] [µM] | AC50 [7] [µM] | AC50 [8] [µM] |
| --- | --- | --- | --- | --- | --- | --- | --- | --- | --- | --- |
| CN(C)CCOC(c1ccc(Cl)cc1)c1ccccn1 (stereo not given) [CARBINOXAMINE] | > 30 | > 30 | 1.3 | > 30 | > 30 | > 30 | > 30 | > 30 | 24 | > 30 |
| CC(=O)Oc1ccccc1C(=O)O [ASPIRIN] | > 10 | > 10 | > 30 | > 30 | > 30 | > 10 | > 30 | > 10 | > 30 | > 10 |
| CCC1(c2ccccc2)C(=O)NCNC1=O [PRIMIDONE] | > 10 | > 10 | > 30 | > 30 | > 10 | > 10 | > 10 | > 10 | > 10 | > 10 |
| CCOC(=O)Nc1ccc(NCc2ccc(F)cc2)nc1N [FLUPIRTINE] | 23 | > 30 | 27 | > 10 | > 30 | > 30 | > 30 | > 30 | > 30 | > 30 |
| C[C@H](Cn1cnc2c(N)ncnc21)OCP(=O)(O)O [TENOFOVIR ANHYDROUS] | > 30 | > 30 | > 30 | > 30 | > 30 | > 30 | > 30 | > 30 | > 30 | > 30 |
| Cc1c(C)c2c(c(C)c1O)CCC(C)(COc1ccc(CC3SC(=O)NC3=O)cc1)O2 (stereo not given) [TROGLITAZONE] | > 30 | > 30 | > 30 | > 30 | > 30 | > 30 | > 30 | 2 | 15 | 24 |
| CCOC(=O)[C@H](CCc1ccccc1)N[C@@H](C)C(=O)N1Cc2ccccc2C[C@H]1C(=O)O | > 10 | > 10 | > 30 | > 10 | > 30 | > 10 | > 30 | > 10 | > 10 | > 10 |
| O=C(O)COC(=O)Cc1ccccc1Nc1c(Cl)cccc1Cl [ACECLOFENAC] | > 10 | > 10 | > 30 | > 30 | > 30 | > 10 | > 30 | > 10 | > 30 | > 10 |
| CC(C)C[C@H](NC(=O)[C@H](Cc1ccccc1)NC(=O)c1cnccn1)B(O)O [BORTEZOMIB] | > 30 | > 30 | > 30 | > 30 | > 30 | > 30 | > 30 | > 30 | > 30 | > 30 |
| CC(C)/N=c1\cc2n(-c3ccc(Cl)cc3)c3ccccc3nc-2cc1Nc1ccc(Cl)cc1 [CLOFAZIMINE] | > 30 | > 30 | 0.958 | > 30 | > 30 | > 30 | > 30 | > 30 | > 30 | 13 |
| Nc1c2c(nc3ccccc13)CCCC2O (stereo not given) [VELNACRINE] | > 30 | > 30 | 25 | > 30 | > 30 | > 30 | > 30 | > 30 | > 30 | > 30 |
| C[C@H](CCC(=O)O)[C@H]1CC[C@H]2[C@@H]3[C@H](O)C[C@@H]4C[C@H](O)CC[C@]4(C)[C@H]3CC[C@]12C [CHENODIOL] | 3 | > 30 | > 30 | > 30 | > 30 | > 30 | > 30 | > 30 | > 30 | > 30 |
| COc1cc2c(cc1OC)C1CC(=O)C(CC(C)C)CN1CC2 (stereo not given) [TETRABENAZINE] | 18 | > 30 | > 30 | > 30 | > 30 | 18 | > 30 | 8.6 | > 30 | > 30 |
| NCC1(CC(=O)O)CCCCC1 [GABAPENTIN] | > 30 | > 30 | > 30 | > 30 | > 30 | > 30 | > 30 | > 30 | > 30 | > 30 |
| CNC1(C)C2CCC(C2)C1(C)C (stereo not given) [MECAMYLAMINE] | > 10 | > 10 | > 30 | > 30 | > 10 | > 10 | > 10 | > 10 | > 10 | > 10 |
| CC(=O)SCC(Cc1ccccc1)C(=O)NCC(=O)OCc1ccccc1 (stereo not given) [RACECADOTRIL] | > 30 | > 30 | > 30 | > 30 | > 30 | > 30 | > 30 | > 30 | > 10 | > 30 |
| O=C(c1ccccc1)c1ccc2n1CCC2C(=O)O (stereo not given) [KETOROLAC] | > 30 | > 10 | > 30 | > 30 | > 10 | > 30 | > 10 | > 30 | > 10 | > 30 |
| C[C@@H](O)[C@H]1C(=O)N2C(C(=O)O)=C(SCCN=CN)C[C@H]12 [IMIPENEM ANHYDROUS] | > 300 | > 300 | > 30 | > 300 | > 300 | > 300 | > 300 | > 300 | > 300 | > 300 |
| CCOc1ccccc1OCCN[C@H](C)Cc1ccc(OC)c(S(N)(=O)=O)c1 [TAMSULOSIN] | 4.77 | > 10 | 6.95 | > 30 | > 30 | > 10 | > 30 | 6.4 | > 30 | 0.3 |
